≈ marks a conversion by molar mass, not a printed value.
Key:
Assay in all cases: ≥ marks a high value that may be exact or a test limit, other limits are often not marked, values filed in µg/mL are converted to µM
[1] = system: Staphylococcus epidermidis
Candida albicans = system: Candida albicans
Escherichia coli = system: Escherichia coli
Staphylococcus aureus = system: Staphylococcus aureus
Bacillus subtilis = system: Bacillus subtilis
[2] = system: Pseudomonas aeruginosa ATCC 27853
[3] = system: Escherichia coli ATCC 25922
[4] = system: Staphylococcus aureus ATCC 25923
Pseudomonas aeruginosa = system: Pseudomonas aeruginosa
[5] = system: Candida albicans ATCC 2002
Escherichia coli UB1005 = system: Escherichia coli UB1005
[6] = system: Pseudomonas aeruginosa PAO1

MIC (Candida albicans) [µM] | MIC (Escherichia coli) [µM] | MIC (Staphylococcus aureus) [µM] | MIC (Bacillus subtilis) [µM] | SMILES | also measured
3.78 (≈ 8 µg/mL) | 15.1 (≈ 32 µg/mL) | 3.78 (≈ 8 µg/mL) |  | CC[C@H](C)[C@H](NC(=O)[C@H](CC(=O)O)NC(=O)[C@H](CC(C)C)NC(=O)[C@H](Cc1ccccc1)NC(=O)CN)C(=O)N[C@H](C(=O)N[C@@H](CCCCN)C(=O)NCC(=O)N[C@H](C(=O)NCC(=O)N[C@@H](CCCCN)C(=O)N[C@H](C(=O)N[C@@H](C)C(=O)N[C@@H](CC(C)C)C(=O)NCC(=O)N[C@@H](C)C(=O)N[C@H](C(=O)N[C@@H](CO)C(=O)N[C@@H](CCCCN)C(=O)N[C@@H](CC(C)C)C(=O)N[C@@H](Cc1ccccc1)C(N)=O)C(C)C)C(C)C)C(C)C)C(C)C [GFLDIVKGVGKVALGAVSKLF] | 
 | 5.5 (≈ 10.5 µg/mL) |  | 27.2 (≈ 52 µg/mL) | CC[C@H](C)[C@H](N)C(=O)N[C@@H](CC(N)=O)C(=O)N[C@@H](Cc1c[nH]c2ccccc12)C(=O)N[C@@H](CCCCN)C(=O)N[C@@H](CCCCN)C(=O)N[C@H](C(=O)N[C@@H](C)C(=O)N[C@@H](CO)C(=O)N[C@H](C(=O)NCC(=O)N[C@@H](CCCCN)C(=O)N[C@@H](CCC(=O)O)C(=O)N[C@H](C(=O)N[C@@H](CC(C)C)C(=O)N[C@@H](CCCCN)C(=O)N[C@@H](C)C(=O)N[C@H](C(N)=O)[C@@H](C)CC)C(C)C)[C@@H](C)CC)[C@@H](C)CC [INWKKIASIGKEVLKAI] | 
 | 100 (≈ 160 µg/mL) |  | ≥ 100 | CC[C@H](C)[C@H](N)C(=O)N[C@@H](CC(N)=O)C(=O)N[C@@H](Cc1c[nH]c2ccccc12)C(=O)N[C@@H](CCCCN)C(=O)N[C@@H](CCCCN)C(=O)N[C@H](C(=O)N[C@@H](C)C(=O)N[C@@H](CO)C(=O)N[C@H](C(=O)NCC(=O)N[C@@H](CCCCN)C(=O)N[C@@H](CCC(=O)O)C(=O)N[C@H](C(=O)N[C@@H](CC(C)C)C(N)=O)C(C)C)[C@@H](C)CC)[C@@H](C)CC [INWKKIASIGKEVL] | 
102 (≈ 250 µg/mL) | 12.7 (≈ 31.2 µg/mL) | 50.8 (≈ 125 µg/mL) |  | CC[C@H](C)[C@H](NC(=O)[C@H](CC(C)C)NC(=O)[C@@H]1CCCN1C(=O)[C@H](CS)NC(=O)[C@H](CC(C)C)NC(=O)CNC(=O)[C@@H]1CCCN1C(=O)[C@H](CCCCN)NC(=O)[C@H](CCCCN)NC(=O)[C@@H]1CCCN1C(=O)[C@H](CCCN=C(N)N)NC(=O)[C@H](CC(=O)O)NC(=O)[C@@H](N)CCCCN)C(=O)N[C@@H](Cc1c[nH]c2ccccc12)C(=O)N[C@@H](Cc1c[nH]c2ccccc12)C(=O)N[C@@H](CC(C)C)C(=O)N[C@H](C(=O)N[C@H](C(=O)N[C@@H](CCCCN)C(=O)N[C@H](C(=O)NCC(N)=O)C(C)C)[C@@H](C)CC)[C@@H](C)CC [KDRPKKPGLCPLIWWLIIKVG] | MIC [2]: 25.4 µM (≈ 62.5 µg/mL); MIC [3]: 6.35 µM (≈ 15.6 µg/mL); MIC [4]: 50.8 µM (≈ 125 µg/mL); MIC (Pseudomonas aeruginosa): 25.4 µM (≈ 62.5 µg/mL)

The next lines start with the molecule.

SMILES | MIC (Candida albicans) [µM] | MIC (Escherichia coli) [µM] | MIC (Staphylococcus aureus) [µM] | MIC (Bacillus subtilis) [µM] | also measured
CC[C@H](C)[C@H](NC(=O)[C@H](CO)NC(=O)[C@@H](NC(=O)[C@H](CCCCN)NC(=O)[C@H](Cc1ccccc1)NC(=O)[C@@H]1CCCN1C(=O)[C@@H](N)CCC(=O)O)[C@@H](C)CC)C(=O)N[C@@H](Cc1cnc[nH]1)C(=O)N[C@@H](CC(C)C)C(=O)NCC(=O)NCC(=O)N[C@@H](Cc1ccc(O)cc1)C(N)=O [EPFKISIHLGGY] |  |  |  |  | MIC [1]: ≥ 220 µM
CC[C@H](C)[C@@H]1NC(=O)[C@H](CCCCN)NC(=O)[C@@H](NC(=O)[C@H](CCCCN)NC(=O)[C@H](CC(C)C)NC(=O)[C@H](CC(N)=O)NC(=O)[C@H](CC(=O)O)NC(=O)[C@H](CC(C)C)NC(=O)[C@H](CC(C)C)NC(=O)[C@@H](NC(=O)[C@@H](NC(=O)[C@H](C)NC(=O)[C@@H](NC(=O)[C@H](CC(N)=O)NC(=O)[C@H](CCCCN)NC(=O)[C@H](C)NC(=O)[C@H](C)NC(=O)[C@H](CC(N)=O)NC(=O)[C@H](CCCCN)NC(=O)[C@H](C)NC(=O)[C@@H](NC(=O)[C@H](CC(=O)O)NC(=O)[C@H](CCSC)NC(=O)[C@H](Cc2ccccc2)NC(=O)CN)[C@@H](C)O)C(C)C)C(C)C)[C@@H](C)O)CSSC[C@@H](C(=O)O)NC(=O)[C@H](C)NC(=O)[C@H](CCCCN)NC(=O)[C@H]([C@@H](C)O)NC1=O [GFMDTAKNAAKNVAVTLLDNLKCKITKAC] | 0.341 (≈ 1.05 µg/mL) | 1.36 (≈ 4.2 µg/mL) | 0.681 (≈ 2.1 µg/mL) | 2.72 (≈ 8.39 µg/mL) | 
CC[C@H](C)[C@H](NC(=O)[C@H](CO)NC(=O)CNC(=O)[C@H](CCCN=C(N)N)NC(=O)[C@@H](NC(=O)[C@H](CO)NC(=O)[C@@H](NC(=O)CNC(=O)[C@H](CO)NC(=O)[C@H](CC(C)C)NC(=O)[C@H](CC(C)C)NC(=O)CN)[C@@H](C)O)C(C)C)C(=O)O [GLLSGTSVRGSI] | 7.85 (≈ 9 µg/mL) | 31.4 (≈ 36 µg/mL) | 15.7 (≈ 18 µg/mL) | 15.7 (≈ 18 µg/mL) | 
CC[C@H](C)[C@H](NC(=O)[C@@H](NC(=O)[C@@H](NC(=O)[C@@H]1CCCN1C(=O)[C@H](Cc1c[nH]c2ccccc12)NC(=O)[C@H](Cc1ccccc1)NC(=O)[C@H](CCCN=C(N)N)NC(=O)[C@H](CCCCN)NC(=O)[C@@H](NC(=O)[C@@H](N)CCCN=C(N)N)[C@@H](C)CC)C(C)C)C(C)C)C(=O)N[C@@H](CCCN=C(N)N)C(=O)N[C@H](C(=O)N[C@H](C(=O)N[C@H](C(=O)N[C@@H](C)C(=O)NCC(=O)N[C@@H](Cc1ccc(O)cc1)C(=O)O)C(C)C)C(C)C)[C@@H](C)O [RIKRFWPVVIRTVVAGY] |  |  |  |  | MIC [5]: ≥ 36.4 µM
CC[C@H](C)[C@H](NC(=O)[C@@H](NC(=O)[C@@H](NC(=O)[C@@H]1CCCN1C(=O)[C@H](Cc1c[nH]c2ccccc12)NC(=O)[C@H](Cc1ccccc1)NC(=O)[C@H](CCCN=C(N)N)NC(=O)[C@H](CCCCN)NC(=O)[C@@H](NC(=O)[C@@H](N)CCCN=C(N)N)[C@@H](C)CC)C(C)C)C(C)C)C(=O)N[C@@H](CCCN=C(N)N)C(=O)N[C@H](C(=O)N[C@H](C(=O)N[C@H](C(=O)N[C@@H](C)C(=O)NCC(=O)O)C(C)C)C(C)C)[C@@H](C)O [RIKRFWPVVIRTVVAG] |  |  |  |  | MIC [5]: ≥ 79.1 µM
CC[C@H](C)[C@H](NC(=O)[C@H](CCCCN)NC(=O)[C@H](CS)NC(=O)[C@H](C)NC(=O)[C@@H](NC(=O)[C@H](Cc1ccccc1)NC(=O)CNC(=O)[C@H](CC(C)C)NC(=O)CNC(=O)[C@@H](NC(=O)[C@H](CCCCN)NC(=O)CNC(=O)[C@H](CC(C)C)NC(=O)[C@H](CC(N)=O)NC(=O)[C@H](CCCCN)NC(=O)[C@H](CC(C)C)NC(=O)[C@@H](NC(=O)[C@H](CCCCN)NC(=O)[C@H](CC(C)C)NC(=O)[C@H](CCSC)NC(=O)[C@@H](N)CO)C(C)C)C(C)C)C(C)C)C(=O)N[C@@H](CC(N)=O)C(=O)N[C@@H](CCCCN)C(=O)N[C@@H](CCC(N)=O)C(=O)N[C@@H](CS)C(=O)O [SMLKVLKNLGKVGLGFVACKINKQC] | 40 (≈ 108 µg/mL) | 10 (≈ 26.9 µg/mL) | 20 (≈ 53.8 µg/mL) |  | 
CC[C@H](C)[C@H](NC(=O)[C@H](CCCCN)NC(=O)[C@H](C)NC(=O)[C@H](C)NC(=O)[C@@H](NC(=O)[C@H](Cc1ccccc1)NC(=O)CNC(=O)[C@H](CC(C)C)NC(=O)CNC(=O)[C@@H](NC(=O)[C@H](CCCCN)NC(=O)CNC(=O)[C@H](CC(C)C)NC(=O)[C@H](CC(N)=O)NC(=O)[C@H](CCCCN)NC(=O)[C@H](CC(C)C)NC(=O)[C@@H](NC(=O)[C@H](CO)NC(=O)[C@H](CC(C)C)NC(=O)[C@H](CCSC)NC(=O)[C@@H](N)CO)C(C)C)C(C)C)C(C)C)C(=O)N[C@@H](C)C(=O)N[C@@H](CCCCN)C(=O)N[C@@H](CCC(N)=O)C(=O)N[C@@H](C)C(=O)O [SMLSVLKNLGKVGLGFVAAKIAKQA] | 100 (≈ 254 µg/mL) | 20 (≈ 50.9 µg/mL) | 100 (≈ 254 µg/mL) |  | 
CSCC[C@H](NC(=O)[C@H](CCSC)NC(=O)[C@H](CCCCN)NC(=O)[C@H](CCCCN)NC(=O)CNC(=O)[C@H](CC(C)C)NC(=O)[C@H](CCCCN)NC(=O)[C@H](CC(C)C)NC(=O)[C@H](Cc1c[nH]c2ccccc12)NC(=O)[C@H](CC(N)=O)NC(=O)[C@@H](N)CO)C(=O)N[C@@H](CO)C(=O)N[C@@H](C)C(=O)N[C@@H](CC(C)C)C(N)=O [SNWLKLGKKMMSAL] |  | 100 (≈ 161 µg/mL) |  | ≥ 40 | 
CC[C@H](C)[C@H](NC(=O)[C@H](CCCN=C(N)N)NC(=O)[C@H](CCCCN)NC(=O)[C@@H]1CCCN1C(=O)[C@@H]1CCCN1C(=O)[C@H](CCCN=C(N)N)NC(=O)[C@@H]1CCCN1C(=O)[C@H](CCCN=C(N)N)NC(=O)[C@@H]1CCCN1C(=O)[C@H](CC(C)C)NC(=O)[C@H](Cc1ccc(O)cc1)NC(=O)[C@@H]1CCCN1C(=O)[C@@H]1CCCN1C(=O)[C@H](CCCCN)NC(=O)[C@H](CC(=O)O)NC(=O)[C@@H](N)C(C)C)C(=O)N[C@@H](Cc1ccc(O)cc1)C(=O)N[C@@H](CC(N)=O)C(=O)N[C@@H](CCCN=C(N)N)C(N)=O [VDKPPYLPRPRPPKRIYNR] |  |  |  |  | MIC (Escherichia coli UB1005): 0.254 µM (≈ 0.6 µg/mL); MIC [4]: 27.1 µM (≈ 64 µg/mL); MIC [6]: 27.1 µM (≈ 64 µg/mL)
CC(C)C[C@H](NC(=O)[C@H](Cc1ccc(O)cc1)NC(=O)[C@@H]1CCCN1C(=O)[C@@H]1CCCN1C(=O)[C@H](CCCCN)NC(=O)[C@H](CC(=O)O)NC(=O)[C@@H](N)C(C)C)C(=O)N1CCC[C@H]1C(=O)N[C@@H](CCCN=C(N)N)C(=O)N1CCC[C@H]1C(=O)N[C@@H](CCCN=C(N)N)C(=O)N1CCC[C@H]1C(=O)N1CCC[C@H]1C(=O)N[C@@H](CCCN=C(N)N)C(=O)N[C@@H](CCCN=C(N)N)C(=O)N[C@@H](CCCCN)C(=O)N[C@@H](Cc1ccc(O)cc1)C(=O)N[C@@H](CC(N)=O)C(=O)N[C@@H](CCCN=C(N)N)C(N)=O [VDKPPYLPRPRPPRRKYNR] |  |  |  |  | MIC (Escherichia coli UB1005): 1.04 µM (≈ 2.5 µg/mL); MIC [4]: 13.3 µM (≈ 32 µg/mL); MIC [6]: 26.6 µM (≈ 64 µg/mL)

Source: DBAASP
